Patent US11883407B2, “Medicament for the treatment of chronic cough” (Shionogi & Co., Ltd., priority 2018, dated 2024)
Read-outs that look alike come from different tables or passages of the source.

Key:
[1] = tested on: nerve fibers of the ganglion inferius; settings: guinea pig lung tissue; cited from earlier work
[2] = human, in vivo; cited from earlier work
[3] = cited from earlier work
[4] = tested on: pulmonary vagal afferent C and A fibers; settings: cited from earlier work
[5] = Study MK-7264-012 (NCT02612610) of Gefapixant: taste-related adverse events; format: in vivo, human; settings: 50 mg; difference between treatment groups
Protocol: In addition, a large number of clinical trial protocols for AF-219 (MK-7264, Gefapixant) and their results are recorded on ClinicalTrials.gov. For example, the results of a trial in which 253 of the 367 candidate patients were randomly assigned to a twice daily oral administration group of a placebo, 7.5 mg, 20 mg or 50 mg of AF-219 to confirm the therapeutic effect after 12 weeks, have been published under the identification number NCT02612610. Among the trial results, it was published that as one of the adverse events, for example, dysgeusia was confirmed in each dose group: 9.52% (7.5 mg administration group, 6 out of 63 cases), 33.33% (20 mg administration group, 21 out of 63 cases) and 47.62% (50 mg administration group, 30 out of 63 cases). […]
Based on the above results, for the proportion of subjects who experienced any of the taste-related adverse events, the study design of each study was taken into account, and as the difference between each investigational drug and placebo, the mean of differences of incidence in the same subject between the treatments and the two-sided 95% confidence interval thereof were calculated for Test Example 6, and the difference of incidence between the Gefapixant 50 mg treatment group and the placebo treatment group and the two-sided 95% confidence interval thereof were calculated for the study MK-7264-012.

[6] = cited from earlier work; for dysgeusia as adverse event: 12 weeks
[7] = tested on: patients with chronic cough; settings: cited from earlier work
[8] = 50 mg twice daily, 63 subjects in safety analysis

**Q.** With `COc1cc(C(C)C)c(Oc2cnc(N)nc2N)cc1I` [AF-353] as the compound, how does the “action potential in nerve fibers of the ganglion inferius evoked by ATP or αβ-methylene ATP” value [1] read?
**A.** almost completely suppressed

**Q.** For `Cc1cnc(-c2cc(O[C@@H]3CCOC3)cc(C(=O)N[C@H](C)c3cnc(C(F)(F)F)nc3)c2)s1` [BAY-1817080], which “number of coughs per 24 hours” value [2] is on record?
**A.** a reduction in the number of coughs per 24 hours was confirmed

**Q.** What does the source list for `CNC(=O)c1cc(F)c(-c2nc3cc(C)ccn3c2C[C@H]2CN(C(=O)OC)CCO2)c(F)c1` [BLU-5937]?
**A.** taste changes, subjects ([3]; 100 mg (n=16)): 6.3%; partial taste loss, subjects ([3]; 400 mg (n=16)): 6.25%; taste changes, subjects ([3]; 400 mg (n=16)): 37.5%; partial taste loss, subjects ([3]; 800 mg (n=8)): 12.5%; taste changes, subjects ([3]; 800 mg (n=8)): 62.5%; taste changes, subjects ([3]; 1200 mg (n=8)): 25%; course of taste-related adverse events ([3]; single and repeated administration): all taste-related adverse events were transient and sporadic

**Q.** With `O=C(O)c1cc(C(=O)O)c(C(=O)N(Cc2cccc(Oc3ccccc3)c2)[C@H]2CCCc3ccccc32)cc1C(=O)O` [Compound A-317491, (5-({3-phenoxybenzyl)[(1S)-1,2,3,4-tetrahydro-1-naphthalenyl]amino}carbonyl)-1,2,4-benzenetricarboxylic acid] as the compound, how does the “activity of pulmonary vagal afferent C and A fibers by α,βmATP” value [4] read?
**A.** inhibits activity of the pulmonary vagal afferent C and A fibers

**Q.** Which “Difference of incidence of any of the taste-related adverse events (drug − placebo)” value [5] does the source give for `COc1cc(C(C)C)c(Oc2cnc(N)nc2N)cc1S(N)(=O)=O` [Gefapixant] here?
**A.** 74.6%

**Q.** And the “dysgeusia as adverse event” value ([6]; 7.5 mg twice daily, 6 out of 63 cases)?
**A.** 9.52%

**Q.** And the “dysgeusia as adverse event” value ([6]; 20 mg twice daily, 21 out of 63 cases)?
**A.** 33.33%

**Q.** What about the “dysgeusia as adverse event” value ([6]; 50 mg twice daily, 30 out of 63 cases) of the same compound?
**A.** 47.62%

**Q.** What about the “Ageusia, number of subjects and incidence” value [6, 8] of the same compound?
**A.** 13 (20.6%)

**Q.** And the “Any of taste-related adverse events, number of subjects and incidence” value [6, 8]?
**A.** 51 (81.0%)

**Q.** And the “Dysgeusia, number of subjects and incidence” value [6, 8]?
**A.** 30 (47.6%)

**Q.** And the “Hypogeusia, number of subjects and incidence” value [6, 8]?
**A.** 15 (23.8%)

**Q.** What about the “hypogeusia as adverse event” value ([7]; 13 out of 24 cases) of the same compound?
**A.** 54%

**Q.** What about the “dysgeusia as adverse event” value ([7]; 21 out of 24 cases) of the same compound?
**A.** 88%

**Q.** What about the “participants who discontinued the trial due to a taste disturbance (hypogeusia or dysgeusia)” value ([7]; human, in vivo) of the same compound?
**A.** 6

**Q.** And the taste-related disorder ([7]; patients administered with AF-219)?
**A.** all patients developed some kind of taste-related disorder

**Q.** What about the “reduction of the frequency of daytime cough compared to the placebo group” value ([7]; patients with chronic cough) of the same compound?
**A.** 75%

**Q.** For TNP-ATP, which “action potential in nerve fibers of the ganglion inferius evoked by ATP or αβ-methylene ATP” value [1] is on record?
**A.** almost completely suppressed
